Earlier results in EP1688139A1 (Board of Regents of the University of Nebraska, priority 2000, dated 2002).

Test system: 3-nitropropionic acid
Conditions: rats, diet supplemented with creatine for 2 weeks, exposed to 3-nitropropionic acid

N-aminoiminomethyl-N-methylglycine [Creatine]
less lesion volume than nonsupplemented animals: 83%
